Test results from ChEMBL document CHEMBL5365481, “Design, Synthesis, and Activity Evaluation of Novel Dual-Target Inhibitors with Antifungal and Immunoregulatory Properties” (J Med Chem, 2023).
Converted amounts (≈) assume the structure as drawn.

Tested on: Pichia kudriavzevii
Test: Antifungal activity against Candida krusei ATCC 6258 assessed as inhibition of fungal growth incubated for 72 hrs by CLSI based liquid medium microdilution method
Type: functional

SMILES | MIC50
CS(=O)(=O)c1ccc(NC(=O)c2nc(-n3cncn3)c3cc(Cl)ccc3n2)cc1 | 1 µg/mL (≈ 2.33 µM)
O=C(NC1CCN(C(=O)c2ccccc2)CC1)c1nc(-n2ccnc2)c2ccccc2n1 | 2 µg/mL (≈ 4.69 µM)
O=C(NC1CCCc2ccccc21)c1nc(-n2cncn2)c2ccccc2n1 (stereo not given) | 2 µg/mL (≈ 5.4 µM)

Tested on: Aspergillus fumigatus
Test: Antifungal activity against Aspergillus fumigatus KM8001 assessed as inhibition of fungal growth incubated for 72 hrs by CLSI based liquid medium microdilution method
Type: functional

SMILES | MIC50
CS(=O)(=O)c1ccc(NC(=O)c2nc(-n3cncn3)c3cc(Cl)ccc3n2)cc1 | 2 µg/mL (≈ 4.66 µM)
O=C(NC1CCN(C(=O)c2ccccc2)CC1)c1nc(-n2ccnc2)c2ccccc2n1 | > 8 µg/mL
O=C(NC1CCCc2ccccc21)c1nc(-n2cncn2)c2ccccc2n1 (stereo not given) | > 8 µg/mL

Tested on: Candida tropicalis
Test: Antifungal activity against Candida tropicalis ATCC 1369 assessed as inhibition of fungal growth incubated for 72 hrs by CLSI based liquid medium microdilution method
Type: functional

SMILES | MIC50
CS(=O)(=O)c1ccc(NC(=O)c2nc(-n3cncn3)c3cc(Cl)ccc3n2)cc1 | 1 µg/mL (≈ 2.33 µM)
O=C(NC1CCN(C(=O)c2ccccc2)CC1)c1nc(-n2ccnc2)c2ccccc2n1 | 1 µg/mL (≈ 2.34 µM)
O=C(NC1CCCc2ccccc21)c1nc(-n2cncn2)c2ccccc2n1 (stereo not given) | 1 µg/mL (≈ 2.7 µM)

Tested on: Candida albicans
Test: Antifungal activity against Candida albicans ATCC SC5314 assessed as inhibition of fungal growth incubated for 72 hrs by CLSI based liquid medium microdilution method
Type: functional

SMILES | MIC50
CS(=O)(=O)c1ccc(NC(=O)c2nc(-n3cncn3)c3cc(Cl)ccc3n2)cc1 | 0.5 µg/mL (≈ 1.17 µM)
O=C(NC1CCN(C(=O)c2ccccc2)CC1)c1nc(-n2ccnc2)c2ccccc2n1 | 1 µg/mL (≈ 2.34 µM)
O=C(NC1CCCc2ccccc21)c1nc(-n2cncn2)c2ccccc2n1 (stereo not given) | 2 µg/mL (≈ 5.4 µM)

Tested on: Cryptococcus neoformans
Test: Antifungal activity against Cryptococcus neoformans ZKCC 2209 assessed as inhibition of fungal growth incubated for 72 hrs by CLSI based liquid medium microdilution method
Type: functional

SMILES | MIC50
CS(=O)(=O)c1ccc(NC(=O)c2nc(-n3cncn3)c3cc(Cl)ccc3n2)cc1 | 0.5 µg/mL (≈ 1.17 µM)
O=C(NC1CCN(C(=O)c2ccccc2)CC1)c1nc(-n2ccnc2)c2ccccc2n1 | 2 µg/mL (≈ 4.69 µM)
O=C(NC1CCCc2ccccc21)c1nc(-n2cncn2)c2ccccc2n1 (stereo not given) | 4 µg/mL (≈ 10.8 µM)
